Test results as given in the NIST ThermoML archive (doi:10.1016/j.tca.2012.07.021).
± gives the expanded uncertainty stated by the source.

How the values were obtained:
[1] = Crystal; DTA
[2] = Molar enthalpy of transition or fusion; conditions: Crystal; DSC
[3] = molar heat capacity at constant pressure; conditions: 101.33 kPa, Crystal, Small sample (50 mg) DSC

O.O.O.O.O.O.[Cl-].[Cl-].[Mg+2] [magnesium chloride hexahydrate]
Normal melting temperature [1]: 117.5 ± 0.4 °C
Molar enthalpy of transition or fusion [2]: 8.21 ± 0.179 kcal/mol
molar heat capacity at constant pressure ([3]; 298.15 K): 336.4 ± 10 J/K/mol
molar heat capacity at constant pressure ([3]; 299.15 K): 336.1 ± 10 J/K/mol
molar heat capacity at constant pressure ([3]; 300.15 K): 336.2 ± 10 J/K/mol
molar heat capacity at constant pressure ([3]; 301.15 K): 336.7 ± 10 J/K/mol
molar heat capacity at constant pressure ([3]; 302.15 K): 337.2 ± 10 J/K/mol
molar heat capacity at constant pressure ([3]; 303.15 K): 337.8 ± 10 J/K/mol
molar heat capacity at constant pressure ([3]; 304.15 K): 338.3 ± 10 J/K/mol
molar heat capacity at constant pressure ([3]; 305.15 K): 338.8 ± 10 J/K/mol
molar heat capacity at constant pressure ([3]; 306.15 K): 339.3 ± 10 J/K/mol
molar heat capacity at constant pressure ([3]; 307.15 K): 339.8 ± 10 J/K/mol
molar heat capacity at constant pressure ([3]; 308.15 K): 340.3 ± 10 J/K/mol
molar heat capacity at constant pressure ([3]; 309.15 K): 340.9 ± 10 J/K/mol
molar heat capacity at constant pressure ([3]; 310.15 K): 341.4 ± 10 J/K/mol
molar heat capacity at constant pressure ([3]; 311.15 K): 342 ± 10 J/K/mol
molar heat capacity at constant pressure ([3]; 312.15 K): 342.5 ± 11 J/K/mol
molar heat capacity at constant pressure ([3]; 313.15 K): 343 ± 11 J/K/mol
molar heat capacity at constant pressure ([3]; 314.15 K): 343.5 ± 11 J/K/mol
molar heat capacity at constant pressure ([3]; 315.15 K): 344.1 ± 11 J/K/mol
molar heat capacity at constant pressure ([3]; 316.15 K): 344.6 ± 11 J/K/mol
molar heat capacity at constant pressure ([3]; 317.15 K): 345.2 ± 11 J/K/mol
molar heat capacity at constant pressure ([3]; 318.15 K): 345.7 ± 11 J/K/mol
molar heat capacity at constant pressure ([3]; 319.15 K): 346.3 ± 12 J/K/mol
molar heat capacity at constant pressure ([3]; 320.15 K): 346.9 ± 12 J/K/mol
molar heat capacity at constant pressure ([3]; 321.15 K): 347.4 ± 12 J/K/mol
molar heat capacity at constant pressure ([3]; 322.15 K): 348 ± 12 J/K/mol
molar heat capacity at constant pressure ([3]; 323.15 K): 348.5 ± 12 J/K/mol
molar heat capacity at constant pressure ([3]; 324.15 K): 349.1 ± 13 J/K/mol
molar heat capacity at constant pressure ([3]; 325.15 K): 349.6 ± 13 J/K/mol
molar heat capacity at constant pressure ([3]; 326.15 K): 350.1 ± 13 J/K/mol
molar heat capacity at constant pressure ([3]; 327.15 K): 350.7 ± 13 J/K/mol
molar heat capacity at constant pressure ([3]; 328.15 K): 351.3 ± 14 J/K/mol
molar heat capacity at constant pressure ([3]; 329.15 K): 351.8 ± 14 J/K/mol
molar heat capacity at constant pressure ([3]; 330.15 K): 352.4 ± 14 J/K/mol
molar heat capacity at constant pressure ([3]; 331.15 K): 353 ± 15 J/K/mol
molar heat capacity at constant pressure ([3]; 332.15 K): 353.6 ± 15 J/K/mol
molar heat capacity at constant pressure ([3]; 333.15 K): 354.2 ± 15 J/K/mol
molar heat capacity at constant pressure ([3]; 334.15 K): 354.8 ± 16 J/K/mol
molar heat capacity at constant pressure ([3]; 335.15 K): 355.4 ± 16 J/K/mol
molar heat capacity at constant pressure ([3]; 336.15 K): 355.9 ± 16 J/K/mol
molar heat capacity at constant pressure ([3]; 337.15 K): 356.5 ± 17 J/K/mol
molar heat capacity at constant pressure ([3]; 338.15 K): 357.1 ± 17 J/K/mol
molar heat capacity at constant pressure ([3]; 339.15 K): 357.8 ± 17 J/K/mol
molar heat capacity at constant pressure ([3]; 340.15 K): 358.4 ± 17 J/K/mol
molar heat capacity at constant pressure ([3]; 341.15 K): 359.1 ± 18 J/K/mol
molar heat capacity at constant pressure ([3]; 342.15 K): 359.7 ± 18 J/K/mol
molar heat capacity at constant pressure ([3]; 343.15 K): 360.3 ± 18 J/K/mol
molar heat capacity at constant pressure ([3]; 344.15 K): 360.9 ± 19 J/K/mol
molar heat capacity at constant pressure ([3]; 345.15 K): 361.5 ± 19 J/K/mol
molar heat capacity at constant pressure ([3]; 346.15 K): 362.2 ± 19 J/K/mol
molar heat capacity at constant pressure ([3]; 347.15 K): 362.9 ± 20 J/K/mol
molar heat capacity at constant pressure ([3]; 348.15 K): 363.6 ± 20 J/K/mol
molar heat capacity at constant pressure ([3]; 349.15 K): 364.3 ± 21 J/K/mol
molar heat capacity at constant pressure ([3]; 350.15 K): 365 ± 21 J/K/mol
molar heat capacity at constant pressure ([3]; 351.15 K): 365.6 ± 21 J/K/mol
molar heat capacity at constant pressure ([3]; 352.15 K): 366.3 ± 22 J/K/mol
molar heat capacity at constant pressure ([3]; 353.15 K): 367 ± 22 J/K/mol
molar heat capacity at constant pressure ([3]; 354.15 K): 367.8 ± 23 J/K/mol
molar heat capacity at constant pressure ([3]; 355.15 K): 368.6 ± 23 J/K/mol
molar heat capacity at constant pressure ([3]; 356.15 K): 369.3 ± 24 J/K/mol
molar heat capacity at constant pressure ([3]; 357.15 K): 370.1 ± 24 J/K/mol
molar heat capacity at constant pressure ([3]; 358.15 K): 370.8 ± 25 J/K/mol
molar heat capacity at constant pressure ([3]; 359.15 K): 371.7 ± 25 J/K/mol
molar heat capacity at constant pressure ([3]; 360.15 K): 372.4 ± 25 J/K/mol
molar heat capacity at constant pressure ([3]; 361.15 K): 373.3 ± 26 J/K/mol
molar heat capacity at constant pressure ([3]; 362.15 K): 374.2 ± 27 J/K/mol
molar heat capacity at constant pressure ([3]; 363.15 K): 375.1 ± 27 J/K/mol
molar heat capacity at constant pressure ([3]; 364.15 K): 376 ± 27 J/K/mol
molar heat capacity at constant pressure ([3]; 365.15 K): 377 ± 28 J/K/mol
molar heat capacity at constant pressure ([3]; 366.15 K): 377.9 ± 28 J/K/mol
molar heat capacity at constant pressure ([3]; 367.15 K): 379 ± 29 J/K/mol
molar heat capacity at constant pressure ([3]; 368.15 K): 380 ± 30 J/K/mol
molar heat capacity at constant pressure ([3]; 369.15 K): 381.1 ± 30 J/K/mol
molar heat capacity at constant pressure ([3]; 370.15 K): 382.1 ± 31 J/K/mol
molar heat capacity at constant pressure ([3]; 371.15 K): 383.3 ± 32 J/K/mol
molar heat capacity at constant pressure ([3]; 372.15 K): 384.4 ± 32 J/K/mol
molar heat capacity at constant pressure ([3]; 373.15 K): 385.6 ± 33 J/K/mol
molar heat capacity at constant pressure ([3]; 374.15 K): 386.8 ± 34 J/K/mol
molar heat capacity at constant pressure ([3]; 375.15 K): 388.1 ± 35 J/K/mol
molar heat capacity at constant pressure ([3]; 376.15 K): 389.3 ± 36 J/K/mol
molar heat capacity at constant pressure ([3]; 377.15 K): 390.6 ± 37 J/K/mol
molar heat capacity at constant pressure ([3]; 378.15 K): 392 ± 38 J/K/mol
molar heat capacity at constant pressure ([3]; 379.15 K): 393.4 ± 39 J/K/mol
molar heat capacity at constant pressure ([3]; 380.15 K): 394.9 ± 40 J/K/mol
molar heat capacity at constant pressure ([3]; 381.15 K): 396.4 ± 41 J/K/mol
molar heat capacity at constant pressure ([3]; 382.15 K): 397.8 ± 42 J/K/mol
molar heat capacity at constant pressure ([3]; 383.15 K): 399.4 ± 44 J/K/mol
molar heat capacity at constant pressure ([3]; 384.15 K): 401.3 ± 46 J/K/mol
molar heat capacity at constant pressure ([3]; 385.15 K): 403.3 ± 48 J/K/mol
molar heat capacity at constant pressure ([3]; 386.15 K): 405.5 ± 50 J/K/mol
molar heat capacity at constant pressure ([3]; 387.15 K): 409.7 ± 54 J/K/mol
molar heat capacity at constant pressure ([3]; 388.15 K): 418.7 ± 59 J/K/mol
molar heat capacity at constant pressure ([3]; 389.15 K): 451.6 ± 77 J/K/mol
